Measured values from paper PMC9855133, “Ligand Binding Properties of Odorant-Binding Protein OBP5 from Mus musculus” (Biology, 2022).

T1: mOBP5 (Mus musculus, UniProt Q9D3H2)
T1 construct: composed of an N-terminal His6-tag, followed by mOBP5 (Ala17-Glu163); made in house; host or cells: E. coli M15 [pREP4]
T1 sequence (Q9D3H2 17-163): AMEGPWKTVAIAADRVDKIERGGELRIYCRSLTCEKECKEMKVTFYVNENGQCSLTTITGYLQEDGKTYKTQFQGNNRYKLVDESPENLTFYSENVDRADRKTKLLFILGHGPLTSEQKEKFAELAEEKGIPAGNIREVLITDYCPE


Experiments:
mOBP5 [1] = biological target: T1, mOBP5; test: Competitive fluorescence binding assay (displacement of NPN from mOBP5); settings: for IC50 / Kd: 2 μM mOBP5, 10 μM NPN; for IC50: 20 °C, for very weak ligands an arbitrary value of 200 μM was assigned, read-out: IC50 (µM) Fluo: concentration of competitor ligand causing a decrease of NPN fluorescence of half-maximal intensity; for Kd: calculated as Kd = [IC50]/(1 + [L]/Kd NPN), average of three experiments, read-out: Kd (µM) Fluo: dissociation constant determined by fluorescence; for fluorescence intensity of the mOBP5-NPN complex in the presence of odorant: competitive curves, Figure 3C
Protocol: (§1) Competitive ligand binding experiments were performed using N-phenyl-1-naphthylamine (NPN) as a fluorescent probe as previously described. All measurements were conducted at 20 °C using a Cary Eclipse spectrofluorimeter (Agilent Technologies, Santa Clara, CA, United States) equipped with a Peltier temperature-control unit with a 1 cm light path, quartz cuvette, and 5 nm slits for both excitation and emission. […] The excitation wavelength of NPN was 337 nm, and the fluorescence emission was recorded between 350 and 600 nm. The value of the dissociation constant (Kd) NPN was calculated using SigmaPlot 12.5 software (Systat Software, Inc., San Jose, CA, USA), as previously described.
Competitive binding assays were carried out with 2 μM mOBP5 incubated with 10 μM NPN, as previously described. After the addition of the competitor compound and the stabilization of the signal (3–4 min), the fluorescence spectrum was recorded. The IC50 value is the concentration of odorant, which causes a fluorescence decrease in half-maximal intensity. The IC50 values were calculated using SigmaPlot software. Dissociation constants (Kd) for odorant competitors were calculated as Kd = [IC50]/(1 + [L]/Kd NPN), with [L] being the free fluorophore concentration and Kd being the OBP-fluorophore complex dissociation constant. The reported Kd values are the average of three measurements performed in three independent experiments.

mOBP5 [2] = biological target: T1, mOBP5; test: Isothermal titration microcalorimetry (ITC); assay type: binding; settings: 25 °C, 25 μM mOBP5, 250 μM odorant, phosphate buffer pH 7.5; for Ka (ITC): association constant determined by ITC: in M-1 (unit assumed); for Kd: read-out: Kd (µM) ITC: dissociation constant determined by ITC (1/Ka)
Protocol: Isothermal titration microcalorimetry (ITC) experiments were carried out at 25 °C with a VP-ITC microcalorimeter (Malvern Panalytical, Palaiseau, France) as previously described. Before initiating the titration run, mOBP5 solutions (25 μM in 50 mM phosphate buffer, pH 7.5) were thoroughly degassed under vacuum. Ligand solutions (250 μM in 50 mM phosphate buffer, pH 7.5) were injected into one 3 µL aliquot, then 26 successive 10 μL aliquots. The duration of each injection was 20 s with a 210 s recovery time between injections. Heats of dilution determined in the absence of mOBP5 were subtracted from the titration data prior to curve fitting. Thermodynamic parameters were obtained by fitting the values to a single site binding model through nonlinear regression using Microcal Origin® software.

mOBP5 [3] = biological target: T1, mOBP5; test: Fluorescence titration of mOBP5 with the probe NPN; assay type: binding; settings: 2 µM mOBP5, 50 mM sodium phosphate pH 7.5, 20 °C, excitation 337 nm; read-out: dissociation constant (Kd) of NPN
Protocol: as §1

[4] = biological target: the molecule itself; test: SEC; calibrated Superdex 75 10/300 GL, room temperature, 100 mM potassium phosphate, 150 mM NaCl, pH 7.5, 1 mL/min; purified mOBP5 at 0.5 mg/mL

Row | Molecule | IC50 (mOBP5 [1]) | Kd (mOBP5 [1]) | fluorescence intensity of the mOBP5-NPN complex in the presence of odorant (mOBP5 [1]) | N ITC: binding stoichiometry per monomer determined by ITC (mOBP5 [2]) | Ka (ITC): association constant determined by ITC (mOBP5 [2]) | Kd (mOBP5 [2]) | Kd (mOBP5 [3]) | stoichiometry N [4]
1 | CC1CCC(C(C)C)C(O)C1 (stereo not drawn) [menthol] | 1.5 µM | 0.38 µM | drastically reduced |  |  |  |  | 
2 | CC(C)=CCCC(C)=CC=O (mixture of isomers) [citral] | 2.5 µM | 0.61 µM |  | 0.65 | 1.3E+07 | 0.076 µM |  | 
3 | CCCCCCCO [1-heptanol] | 2.4 µM | 0.59 µM |  |  |  |  |  | 
4 | CCCCCCCCC(C)=O [2-decanone] | 1.2 µM | 0.31 µM | drastically reduced |  |  |  |  | 
5 | C=C(C)[C@H]1CC=C(C)C(=O)C1 [(+)-carvone] | 1 µM | 0.28 µM | drastically reduced | 0.47 | 8.7E+06 | 0.115 µM |  | 
6 | Cc1ccc(C(C)C)c(O)c1 [thymol] | 40 µM |  |  |  |  |  |  | 
7 | CC12CCC(CC1=O)C2(C)C (stereo not drawn) [camphor] | 10.4 µM | 1.6 µM |  |  |  |  |  | 
8 | CCCCCCC1CCC(=O)O1 (stereo not drawn) [γ-decalactone] | 2.4 µM | 0.58 µM |  |  |  |  |  | 
9 | CCCC(=O)OCC [ethyl butyrate] | 40 µM |  |  |  |  |  |  | 
10 | CC(=O)/C=C/C1=C(C)CCCC1(C)C [β-ionone] | 3 µM | 0.71 µM |  |  |  |  |  | 
11 | CC(C)=CCC/C(C)=C/CO [geraniol] | 0.7 µM | 0.19 µM | drastically reduced | 0.71 | 2.5E+07 | 0.04 µM |  | 
12 | CCCCCCCC=O [octanal] | 1.3 µM | 0.34 µM | drastically reduced |  |  |  |  | 
13 | CC(=O)OCCC(C)C [isoamyl acetate] | 2.5 µM | 0.6 µM |  | 0.87 | 8.6E+06 | 0.116 µM |  | 
14 | CCCCCCCCO [1-octanol] | 1.1 µM | 0.29 µM | drastically reduced | 0.71 | 3.6E+07 | 0.028 µM |  | 
15 | C=CC(C)(O)CCC=C(C)C (stereo not drawn) [linalool] | 1.1 µM | 0.3 µM | drastically reduced |  |  |  |  | 
16 | CCCCCCO [1-hexanol] | 40 µM |  |  |  |  |  |  | 
17 | C=C(C)C1CC=C(C)C(=O)C1 (single isomer, unassigned; (-)) [(-)-carvone] | 1.1 µM | 0.28 µM | drastically reduced |  |  |  |  | 
18 | CC(C=O)Cc1ccc(C(C)(C)C)cc1 (stereo not drawn) [lilialdehyde] | 1.4 µM | 0.38 µM | drastically reduced |  |  |  |  | 
19 | c1ccc(Nc2cccc3ccccc23)cc1 [NPN, N-phenyl-1-naphthylamine] |  |  |  |  |  |  | 3330 ± 170 nM | 
20 | CC1=CCC2CC1C2(C)C (stereo not drawn) [α-pinene] | 0.9 µM | 0.24 µM | drastically reduced |  |  |  |  | 
21 | CC(C)[C@@H]1CC[C@@H](C)CC1=O [menthone] | 0.8 µM | 0.23 µM | drastically reduced | 0.58 | 1.8E+07 | 0.055 µM |  | 
22 | COc1nccnc1CC(C)C [3-iso-butyl-2-methoxy-pyrazine] | 7.2 µM | 1.3 µM |  |  |  |  |  | 
23 | COc1ccc(C=O)cc1 [4-methoxy-benzaldehyde] | 40 µM |  |  |  |  |  |  | 
24 | CC12CCC(CC1)C(C)(C)O2 [cineole] | 40 µM |  |  |  |  |  |  | 
25 | Mus musculus odorant-binding protein OBP5 (mOBP5), recombinant His6-tagged (natural protein, UniProt Q9D3H2 17-163, looked up, Expressed from pQE31 (BamHI/HindIII); also called mOBP1a; source: E. coli M15 [pREP4], purified (HisTrap Ni2+-chelating column, dialysis); not shown: His6, N-terminal, kept) AMEGPWKTVAIAADRVDKIERGGELRIYCRSLTCEKECKEMKVTFYVNENGQCSLTTITGYLQEDGKTYKTQFQGNNRYKLVDESPENLTFYSENVDRADRKTKLLFILGHGPLTSEQKEKFAELAEEKGIPAGNIREVLITDYCPE |  |  |  |  |  |  |  | 2
